According to ChEMBL document CHEMBL1201862, “PubChem BioAssay data set” (2004):
Active and inactive are the calls of the source.

Key:
cells [1] = assay type: functional, cell-based
Beta-galactosidase = Beta-galactosidase (Escherichia coli, UniProt Q8VNN2); assay: PubChem AID 485352; assay type: functional
[2] = target: T1, Heat shock factor protein 1 (Mus musculus, UniProt P38532); assay: decrease of HSF1-responsive luciferase luminescence – cell-based, NIH3T3, dose retest, confirmation (AID 2382); assay type: functional;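 further: NIH3T3 fibroblasts with HSF1-driven luciferase reporter stressed by proteasome inhibitor MG132; luminescence from HSF1-driven luciferase expression after 8 hours of MG132 stress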
T1 sequence (P38532 whole entry): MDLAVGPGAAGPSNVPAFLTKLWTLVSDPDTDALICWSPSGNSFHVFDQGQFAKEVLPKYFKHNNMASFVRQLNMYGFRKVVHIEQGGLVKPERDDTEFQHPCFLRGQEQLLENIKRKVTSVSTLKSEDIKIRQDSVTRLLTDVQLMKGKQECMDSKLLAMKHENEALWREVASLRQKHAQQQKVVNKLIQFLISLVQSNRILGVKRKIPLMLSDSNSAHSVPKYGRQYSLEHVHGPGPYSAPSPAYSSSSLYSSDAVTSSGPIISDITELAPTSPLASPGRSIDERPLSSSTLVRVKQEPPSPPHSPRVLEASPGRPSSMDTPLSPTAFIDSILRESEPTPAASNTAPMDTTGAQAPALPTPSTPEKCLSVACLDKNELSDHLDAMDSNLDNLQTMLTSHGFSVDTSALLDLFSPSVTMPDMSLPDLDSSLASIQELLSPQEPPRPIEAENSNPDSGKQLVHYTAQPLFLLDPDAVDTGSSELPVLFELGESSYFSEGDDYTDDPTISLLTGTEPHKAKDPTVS

[3] = target: T2, Type-1 angiotensin II receptor (Homo sapiens, UniProt P30556); assay: antagonism of angiotensin II type 1 receptor – cell-based, uHTS hits, selectivity assay for APJ receptor antagonist project, dose response (AID 463214); assay type: functional;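 further: antagonist potency against angiotensin II stimulated AT1 response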
T2 sequence (P30556 whole entry): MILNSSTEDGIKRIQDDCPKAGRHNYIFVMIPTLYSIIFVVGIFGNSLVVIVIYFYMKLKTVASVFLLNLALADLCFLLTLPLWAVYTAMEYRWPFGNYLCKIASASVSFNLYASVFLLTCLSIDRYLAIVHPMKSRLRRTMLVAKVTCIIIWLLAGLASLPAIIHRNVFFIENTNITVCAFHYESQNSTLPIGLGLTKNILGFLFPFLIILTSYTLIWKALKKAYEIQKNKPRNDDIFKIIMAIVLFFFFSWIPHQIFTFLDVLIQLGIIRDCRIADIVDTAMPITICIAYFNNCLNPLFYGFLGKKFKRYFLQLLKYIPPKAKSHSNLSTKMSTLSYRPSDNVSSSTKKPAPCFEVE

cells [4] = assay type: functional, cell-based; remark: listed apart in the source
[5] = target: Neurotensin receptor type 1 (Homo sapiens, UniProt P30989); assay type: functional;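 further: Image-based confirmatory dose-response assay measuring agonist activity at NTR1; NTR1-expressing U2OS osteosarcoma cells imaged for beta-arrestin GFP spot formation; agonist potency where compounds increase beta-arrestin recruitment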
[6] = reduction of Shn3 3'UTR-driven luciferase in osteoblasts – cell-based, Clone20 osteoblasts, firefly luciferase, cherry-picked, dose response (AID 624132); assay type: functional;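 further: firefly luciferase luminescence from reporter carrying the Shn3 3'UTR in osteoblasts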
[7] = loss of viability in HepG2 cells – cell-based, CellTiter-Glo, cherry-picked, cytotoxicity control for Shn3 inhibitor project, dose response (AID 624134); assay type: functional
[8] = non-specific 3'UTR reporter inhibition in Clone20-Shn3RL – cell-based, Renilla luciferase, cherry-picked, counter-screen for Shn3 inhibitor project, dose response (AID 624133); assay type: functional
Caspase-3 = target: T3, Caspase-3 (Homo sapiens, UniProt P42574); assay type: functional;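 further: Dose-response selectivity test against caspase-3 for candidate inhibitors of sentrin-specific proteases (SENPs)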
T3 sequence (P42574 whole entry): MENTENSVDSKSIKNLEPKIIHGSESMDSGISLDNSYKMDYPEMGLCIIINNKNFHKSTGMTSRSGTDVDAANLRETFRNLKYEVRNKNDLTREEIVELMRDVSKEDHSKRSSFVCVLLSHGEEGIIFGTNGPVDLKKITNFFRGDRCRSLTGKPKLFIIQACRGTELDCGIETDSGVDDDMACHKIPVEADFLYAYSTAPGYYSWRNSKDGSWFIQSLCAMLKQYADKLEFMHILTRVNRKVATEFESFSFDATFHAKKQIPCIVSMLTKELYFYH

[9] = target: T4, Sentrin-specific protease 7 (Homo sapiens, UniProt Q9BQF6); assay type: functional;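 further: Luminescence-based dose-response confirmation of ultra-high-throughput screening hits, measuring inhibition of SENP7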
T4 sequence (Q9BQF6 whole entry): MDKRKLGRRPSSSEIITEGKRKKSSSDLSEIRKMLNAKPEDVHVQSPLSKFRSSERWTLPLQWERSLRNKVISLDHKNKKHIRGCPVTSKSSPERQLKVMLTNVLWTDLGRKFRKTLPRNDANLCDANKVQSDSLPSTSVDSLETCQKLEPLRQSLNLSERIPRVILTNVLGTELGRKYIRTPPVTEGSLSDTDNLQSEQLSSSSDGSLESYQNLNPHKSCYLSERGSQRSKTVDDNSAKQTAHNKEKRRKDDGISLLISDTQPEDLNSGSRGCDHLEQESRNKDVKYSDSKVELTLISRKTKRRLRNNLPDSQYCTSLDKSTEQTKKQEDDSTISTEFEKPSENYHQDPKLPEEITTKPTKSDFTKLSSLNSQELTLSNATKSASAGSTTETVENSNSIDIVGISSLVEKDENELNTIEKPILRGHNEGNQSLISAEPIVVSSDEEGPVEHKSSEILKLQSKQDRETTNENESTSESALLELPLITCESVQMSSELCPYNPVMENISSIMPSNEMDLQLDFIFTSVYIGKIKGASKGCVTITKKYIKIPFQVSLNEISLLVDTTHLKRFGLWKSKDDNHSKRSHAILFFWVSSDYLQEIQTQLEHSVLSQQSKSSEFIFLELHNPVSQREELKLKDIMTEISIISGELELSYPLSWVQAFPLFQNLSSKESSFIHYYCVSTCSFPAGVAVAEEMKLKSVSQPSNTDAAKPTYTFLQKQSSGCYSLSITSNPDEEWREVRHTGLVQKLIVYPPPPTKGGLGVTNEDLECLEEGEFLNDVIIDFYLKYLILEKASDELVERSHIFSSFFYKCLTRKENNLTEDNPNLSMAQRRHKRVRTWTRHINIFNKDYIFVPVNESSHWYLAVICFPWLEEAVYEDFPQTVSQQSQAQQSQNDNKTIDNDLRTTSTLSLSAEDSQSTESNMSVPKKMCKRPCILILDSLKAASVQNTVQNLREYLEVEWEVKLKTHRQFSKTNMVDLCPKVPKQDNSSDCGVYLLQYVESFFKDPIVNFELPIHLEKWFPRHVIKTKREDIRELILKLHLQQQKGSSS

[10] = target: T5, Sentrin-specific protease 6 (Homo sapiens, UniProt Q9GZR1); assay type: functional;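 further: Luminescence-based dose-response confirmatory assay of SENP6 inhibition, following up an ultra-high-throughput screen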
T5 sequence (Q9GZR1 whole entry): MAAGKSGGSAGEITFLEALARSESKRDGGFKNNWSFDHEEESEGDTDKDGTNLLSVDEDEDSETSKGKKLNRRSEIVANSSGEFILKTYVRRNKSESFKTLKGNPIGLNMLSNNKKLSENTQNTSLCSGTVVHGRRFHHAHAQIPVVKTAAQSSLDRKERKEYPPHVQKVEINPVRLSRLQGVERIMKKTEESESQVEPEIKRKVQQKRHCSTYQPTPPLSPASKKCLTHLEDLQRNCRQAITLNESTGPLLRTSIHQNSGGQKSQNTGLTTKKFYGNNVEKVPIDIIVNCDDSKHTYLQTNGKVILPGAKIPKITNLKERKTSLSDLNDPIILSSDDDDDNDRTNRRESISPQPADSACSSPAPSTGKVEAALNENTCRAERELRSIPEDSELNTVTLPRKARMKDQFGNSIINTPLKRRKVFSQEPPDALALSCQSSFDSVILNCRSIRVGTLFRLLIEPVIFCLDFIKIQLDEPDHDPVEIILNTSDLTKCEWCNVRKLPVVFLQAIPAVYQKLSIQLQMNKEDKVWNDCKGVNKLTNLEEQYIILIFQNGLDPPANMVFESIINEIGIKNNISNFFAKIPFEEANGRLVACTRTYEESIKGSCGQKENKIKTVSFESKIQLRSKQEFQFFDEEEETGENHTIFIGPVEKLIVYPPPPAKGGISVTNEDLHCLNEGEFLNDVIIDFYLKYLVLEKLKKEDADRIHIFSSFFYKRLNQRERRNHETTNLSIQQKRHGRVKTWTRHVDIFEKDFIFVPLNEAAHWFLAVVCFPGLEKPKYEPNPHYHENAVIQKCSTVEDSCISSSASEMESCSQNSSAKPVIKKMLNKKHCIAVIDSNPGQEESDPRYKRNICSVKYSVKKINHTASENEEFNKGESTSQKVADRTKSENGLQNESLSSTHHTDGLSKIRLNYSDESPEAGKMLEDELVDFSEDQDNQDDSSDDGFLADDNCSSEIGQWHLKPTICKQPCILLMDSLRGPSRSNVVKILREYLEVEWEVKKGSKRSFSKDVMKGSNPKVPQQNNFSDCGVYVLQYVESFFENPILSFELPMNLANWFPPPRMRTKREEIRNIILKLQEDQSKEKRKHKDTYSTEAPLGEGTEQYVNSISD

[11] = target: Metabotropic glutamate receptor 4 (Homo sapiens, UniProt Q14833); assay: Modulation of the Metabotropic Glutamate Receptor mGluR4: Potency at human mGluR4. Modulation of intracellular Ca2+ using Fluo-4, AM, in CHO expressing recombinant receptor [Related pubchem assays (depositor defined):AID2437, AID2807]; assay type: functional, cell-based
[12] = target: T6, Sentrin-specific protease 8 (Homo sapiens, UniProt Q96LD8); assay type: functional;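 further: luminescence read-out of SENP8 inhibition, dose-response confirmation following an ultra-high-throughput screen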
T6 sequence (Q96LD8 whole entry): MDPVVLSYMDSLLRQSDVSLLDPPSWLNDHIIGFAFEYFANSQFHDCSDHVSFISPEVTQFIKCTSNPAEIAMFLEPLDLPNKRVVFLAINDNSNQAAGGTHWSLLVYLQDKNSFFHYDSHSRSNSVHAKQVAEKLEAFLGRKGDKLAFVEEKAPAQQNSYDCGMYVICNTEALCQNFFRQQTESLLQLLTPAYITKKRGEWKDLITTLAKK

[13] = target: Metabotropic glutamate receptor 4 (Rattus norvegicus, UniProt P31423); assay: Modulation of the Metabotropic Glutamate Receptor mGluR4: Rat PAM Potency. [Related pubchem assays (depositor defined):AID2437, AID2807]; assay type: functional
Protein skinhead-1 = target: T7, Protein skinhead-1 (Caenorhabditis elegans, UniProt P34707); assay type: functional
T7 sequence (P34707 whole entry): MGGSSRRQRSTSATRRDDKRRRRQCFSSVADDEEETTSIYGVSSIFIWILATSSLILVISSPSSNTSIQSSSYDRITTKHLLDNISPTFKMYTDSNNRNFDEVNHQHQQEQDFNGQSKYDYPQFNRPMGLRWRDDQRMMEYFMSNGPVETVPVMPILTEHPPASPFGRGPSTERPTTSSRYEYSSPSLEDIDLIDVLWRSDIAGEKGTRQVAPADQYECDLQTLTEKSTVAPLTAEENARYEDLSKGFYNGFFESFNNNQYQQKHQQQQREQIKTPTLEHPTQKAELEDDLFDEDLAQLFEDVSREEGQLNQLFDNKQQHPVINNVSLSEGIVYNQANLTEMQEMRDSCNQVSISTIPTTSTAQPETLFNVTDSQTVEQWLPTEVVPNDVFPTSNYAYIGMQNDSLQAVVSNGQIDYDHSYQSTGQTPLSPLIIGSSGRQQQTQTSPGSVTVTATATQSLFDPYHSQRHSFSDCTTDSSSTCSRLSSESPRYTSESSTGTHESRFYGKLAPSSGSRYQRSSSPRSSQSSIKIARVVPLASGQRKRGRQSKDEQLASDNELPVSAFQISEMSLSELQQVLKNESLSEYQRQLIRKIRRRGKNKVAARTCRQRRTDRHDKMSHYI

Chain of Metabotropic glutamate receptor 4 (Rattus norvegicus, UniProt P31423) (P31423 whole entry): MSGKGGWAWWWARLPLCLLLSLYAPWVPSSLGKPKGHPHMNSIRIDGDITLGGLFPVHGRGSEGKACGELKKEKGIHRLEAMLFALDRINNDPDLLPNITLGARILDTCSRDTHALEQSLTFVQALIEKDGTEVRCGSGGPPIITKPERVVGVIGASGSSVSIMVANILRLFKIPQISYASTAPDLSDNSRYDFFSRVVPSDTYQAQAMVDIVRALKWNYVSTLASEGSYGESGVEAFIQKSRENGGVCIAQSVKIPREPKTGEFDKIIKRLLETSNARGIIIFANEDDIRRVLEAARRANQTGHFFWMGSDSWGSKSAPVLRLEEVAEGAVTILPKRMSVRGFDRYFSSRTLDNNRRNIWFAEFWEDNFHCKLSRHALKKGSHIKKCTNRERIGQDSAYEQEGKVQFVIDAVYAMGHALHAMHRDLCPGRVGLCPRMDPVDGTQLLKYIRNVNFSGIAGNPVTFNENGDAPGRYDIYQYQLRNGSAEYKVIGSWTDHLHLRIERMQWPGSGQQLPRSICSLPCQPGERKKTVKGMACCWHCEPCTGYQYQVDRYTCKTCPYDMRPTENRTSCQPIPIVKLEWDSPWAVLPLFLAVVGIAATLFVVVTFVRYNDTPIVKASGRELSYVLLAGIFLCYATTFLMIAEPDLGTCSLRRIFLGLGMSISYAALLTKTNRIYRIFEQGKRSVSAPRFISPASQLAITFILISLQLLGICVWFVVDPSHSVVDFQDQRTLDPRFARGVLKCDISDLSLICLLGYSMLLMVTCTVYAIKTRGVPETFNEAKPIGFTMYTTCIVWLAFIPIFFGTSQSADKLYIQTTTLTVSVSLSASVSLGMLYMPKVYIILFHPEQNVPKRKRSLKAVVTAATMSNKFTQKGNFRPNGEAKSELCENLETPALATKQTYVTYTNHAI
Chain of Beta-galactosidase (Q8VNN2 whole entry): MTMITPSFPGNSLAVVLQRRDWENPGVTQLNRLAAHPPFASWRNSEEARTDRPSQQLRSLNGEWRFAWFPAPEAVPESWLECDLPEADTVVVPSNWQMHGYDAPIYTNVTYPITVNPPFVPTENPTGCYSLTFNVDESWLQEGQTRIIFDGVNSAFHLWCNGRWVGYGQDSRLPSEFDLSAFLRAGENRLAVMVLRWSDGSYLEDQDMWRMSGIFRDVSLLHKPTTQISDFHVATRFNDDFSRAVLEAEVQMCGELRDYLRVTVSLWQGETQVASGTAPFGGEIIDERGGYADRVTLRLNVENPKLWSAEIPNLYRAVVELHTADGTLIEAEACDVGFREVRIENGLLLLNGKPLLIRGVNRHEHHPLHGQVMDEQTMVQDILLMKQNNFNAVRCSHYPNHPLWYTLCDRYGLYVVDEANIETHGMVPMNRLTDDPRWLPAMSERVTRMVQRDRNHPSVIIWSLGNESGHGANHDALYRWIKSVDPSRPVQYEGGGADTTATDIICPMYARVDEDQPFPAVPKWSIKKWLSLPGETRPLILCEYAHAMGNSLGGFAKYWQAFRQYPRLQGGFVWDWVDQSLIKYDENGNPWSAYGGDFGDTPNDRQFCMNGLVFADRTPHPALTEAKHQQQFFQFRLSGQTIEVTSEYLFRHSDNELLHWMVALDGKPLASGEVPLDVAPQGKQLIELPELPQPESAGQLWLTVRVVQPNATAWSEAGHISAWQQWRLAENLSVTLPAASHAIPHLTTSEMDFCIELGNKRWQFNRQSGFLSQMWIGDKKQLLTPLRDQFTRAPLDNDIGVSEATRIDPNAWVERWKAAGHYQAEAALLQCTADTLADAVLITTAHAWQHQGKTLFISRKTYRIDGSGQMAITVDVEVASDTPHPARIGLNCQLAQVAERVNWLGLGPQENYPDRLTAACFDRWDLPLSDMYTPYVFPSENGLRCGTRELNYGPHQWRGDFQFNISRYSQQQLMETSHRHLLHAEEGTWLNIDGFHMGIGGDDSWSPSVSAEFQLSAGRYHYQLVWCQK
Chain of Metabotropic glutamate receptor 4 (Homo sapiens, UniProt Q14833) (Q14833 whole entry): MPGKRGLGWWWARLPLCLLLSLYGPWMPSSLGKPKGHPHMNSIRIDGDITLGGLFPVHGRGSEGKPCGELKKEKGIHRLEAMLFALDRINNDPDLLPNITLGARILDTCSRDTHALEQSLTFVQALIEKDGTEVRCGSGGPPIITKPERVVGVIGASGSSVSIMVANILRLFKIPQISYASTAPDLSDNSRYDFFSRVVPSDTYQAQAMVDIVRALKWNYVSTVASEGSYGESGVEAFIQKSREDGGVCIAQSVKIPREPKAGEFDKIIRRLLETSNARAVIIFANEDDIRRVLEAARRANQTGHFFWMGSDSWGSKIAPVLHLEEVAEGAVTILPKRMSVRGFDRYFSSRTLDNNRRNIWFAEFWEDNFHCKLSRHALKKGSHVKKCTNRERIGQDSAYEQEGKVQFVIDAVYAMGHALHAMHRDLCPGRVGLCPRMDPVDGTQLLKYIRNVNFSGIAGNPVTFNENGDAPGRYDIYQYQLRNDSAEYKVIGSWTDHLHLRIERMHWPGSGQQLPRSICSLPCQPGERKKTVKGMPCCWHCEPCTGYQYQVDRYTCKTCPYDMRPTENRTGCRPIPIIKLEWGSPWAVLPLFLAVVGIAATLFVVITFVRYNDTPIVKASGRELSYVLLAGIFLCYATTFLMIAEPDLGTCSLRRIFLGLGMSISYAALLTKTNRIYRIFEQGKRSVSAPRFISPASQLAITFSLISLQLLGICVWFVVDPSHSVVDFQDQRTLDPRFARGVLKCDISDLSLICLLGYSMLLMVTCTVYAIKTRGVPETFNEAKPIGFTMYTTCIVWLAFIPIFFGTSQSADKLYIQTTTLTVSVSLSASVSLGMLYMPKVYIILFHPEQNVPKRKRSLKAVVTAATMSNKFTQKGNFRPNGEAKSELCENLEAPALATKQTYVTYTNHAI
Chain of Neurotensin receptor type 1 (P30989 whole entry): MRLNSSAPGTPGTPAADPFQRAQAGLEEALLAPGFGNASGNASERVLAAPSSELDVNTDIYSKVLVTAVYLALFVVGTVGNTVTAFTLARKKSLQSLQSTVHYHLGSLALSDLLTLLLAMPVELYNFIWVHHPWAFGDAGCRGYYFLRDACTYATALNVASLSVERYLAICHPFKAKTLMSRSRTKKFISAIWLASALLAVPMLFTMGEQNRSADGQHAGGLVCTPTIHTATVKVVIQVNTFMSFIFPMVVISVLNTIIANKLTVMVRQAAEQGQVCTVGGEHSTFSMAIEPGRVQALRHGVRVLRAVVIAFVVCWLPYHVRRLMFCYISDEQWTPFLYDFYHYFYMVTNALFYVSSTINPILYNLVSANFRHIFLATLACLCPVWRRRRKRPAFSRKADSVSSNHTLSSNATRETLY

| SMILES | EC50 (cells [1]) | EC50 (Beta-galactosidase) | EC50 [2] | IC50 [3] | EC50 (cells [4]) | EC50 [5] | AC50 [6] | AC50 [7] | AC50 [8] | IC50 (Caspase-3) | IC50 [9] | IC50 [10] | EC50 [11] | IC50 [12] | EC50 [13] | IC50 (Protein skinhead-1) |
| --- | --- | --- | --- | --- | --- | --- | --- | --- | --- | --- | --- | --- | --- | --- | --- | --- |
| CC(=O)OCCCNc1cc(Sc2ccc(C)cc2)c2nonc2c1[N+](=O)[O-] | > 350 µM (not active) | > 40 µM (inactive) | > 195 µM (not active) | 1.56 µM (active) | > 350 µM (not active) | 5.83 µM (active) | 1.1 µM (active) | > 70 µM (inactive) | 12.4 µM (active) | – | – | – | – | – | – | – |
| O=C(Nc1ccc(Cl)c(Cl)c1)c1ccco1 | – | – | – | – | – | – | – | – | – | 17 µM (active) | 5.24 µM (active) | 18.3 µM (active) | 4.54 µM (active) | 21.7 µM (active) | 3.58 µM (active) | 24.4 µM (active) |
